What all share (assay): DTP human tumour cell line panel, 48 h
The test system of assay [1] is CAKI-1 renal.
The test system of assay [2] is EKVX NSCLC.
Assay [3] deals with LOX IMVI melanoma.
The test system of assay [4] is M14 melanoma.
Assay [5] has as its system MDA-MB-435.
For assay [6], the system named is MOLT-4 leukemia.
In assay [7] the test system is OVCAR-3 ovarian.
The test system of assay [8] is SF-295 CNS.
Assay [9] has as its system SK-MEL-5 melanoma.
Assay [10] deals with UACC-62 melanoma.

Where “and” joins values, the source holds several entries; their conditions need not be identical. Identical values can stand only once.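 Following 48 hours of exposure in 96-well plates, responses at five concentrations were used to interpolate endpoints linearly. The concentration for 50% growth inhibition is given as GI50. At the TGI there is no net growth.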 Some results are limits rather than exact numbers.

One may read the GI50 as the concentration that inhibits growth by half. For orientation: TGI means the concentration at which net growth stops. For the molecule `S=C(Nc1ccc(-c2nc3ccccc3[nH]2)cc1)Nc1ccc(-c2nc3ccccc3[nH]2)cc1`, the GI50 in assay [1] is 69.7 µM; in [2] it was more than 100 µM; in [3], more than 100 µM; in assay [4] it was 60.3 µM; in assay [5] it was more than 100 µM; in [6], 43.8 µM. The GI50 was 48.9 µM in assay [7], 48.4 µM in assay [8], 37.1 µM in assay [9] and 38.6 µM in [10]. Further, the TGI in assay [1], in assay [2], in assay [3], in [4], in assay [5] and in assay [6] was more than 100 µM in each case. Besides, the TGI in [7], in [8], in assay [9] and in assay [10] was more than 100 µM in each case.

For the molecule `O=C(Nc1ccncc1)C(=O)c1cn(S(=O)(=O)c2ccc(Cl)cc2)c2ccccc12`, the GI50 in assay [1] was 1.86 µM; in assay [2], 2.62 µM; in assay [3], 0.765 µM; in [4], 0.634 µM; in assay [5], 0.106 µM; in [6] it was 3.63 µM. The GI50 in assay [7] is 0.538 µM; in assay [8], 1.68 µM; in assay [9], 0.443 µM; in assay [10] it was 0.503 µM. Besides, the total growth inhibition concentration (TGI) in assay [1] is more than 100 µM; in [2] it was more than 100 µM; in [3], more than 100 µM; in assay [4], more than 52.1 µM; in assay [5] it was 0.521 µM; in assay [6], more than 100 µM. Further, the TGI is 9.44 µM in [7], 14.9 µM in assay [8], 11.9 µM in [9] and 14.2 µM in [10].

For `O=C(c1ccccc1)C(CN1CCCCC1)c1ccccc1` (configuration not stated), the GI50 in [1] was 1.08 µM; in [2], 3.5 µM; in [3], 0.478 µM; in assay [4], 0.865 µM; in assay [5], 1.67 µM; in [6] it was 1.96 µM. Besides, the GI50 in assay [7] is 1.78 µM; in assay [8] it was 4.85 µM; in assay [9] it was 2.38 µM; in assay [10], 1.98 µM. Besides, the TGI in [1] came to 2.45 µM; in assay [2], 16.7 µM; in assay [3], 1.7 µM; in [4], 2.63 µM; in [5], 4.19 µM; in assay [6], 5.09 µM. For the same molecule, the TGI turned out to be 3.25 µM in [7], 17.5 µM in assay [8], 6.74 µM in assay [9] and 4.8 µM in assay [10].

Consider `CC1CCCC(C(O)CC2CC(=O)NC(=O)C2)C1O` (configuration not stated), for which the TGI in [1], in assay [2], in assay [3], in assay [4], in assay [5] and in assay [6] was more than 100 µM each time. Besides, the TGI in assay [7], in [8], in assay [9] and in assay [10] was more than 100 µM throughout.

Turning to `C[n+]1c2cc(N)ccc2cc2ccc(N)cc21`, the GI50 in assay [1] is 1.04 µM [middle of 4 runs]; in assay [2] it was 0.263 µM and 0.831 µM and 0.261 µM; in assay [3] it was 0.956 µM and 2.26 µM and 1.82 µM; in assay [4], 1.68 µM [middle of 4 runs]; in assay [5], 1.62 µM [middle of 4 runs]; in [6] it was 547 nM [middle of 4 runs]. For the same molecule, the GI50 in [7] was 1.58 µM [middle of 4 runs]; in assay [9], 1.23 µM [middle of 4 runs]; in [10], 1.26 µM [middle of 4 runs]. Moreover, the TGI in [1] was 9.03 µM [middle of 4 runs]; in assay [2], 2.31 µM [middle of 4 runs]; in assay [3] it was 5.52 µM [middle of 4 runs]; in [4], 3.75 µM [middle of 4 runs]; in [7], 7.45 µM [middle of 4 runs]; in assay [8], 5.63 µM [middle of 4 runs]. For the same molecule, the TGI was 2.57 µM [middle of 4 runs] in assay [9] and 2.86 µM [middle of 4 runs] in assay [10].

Turning to `COc1cc(NCCCN=C(N)NC(N)=NC(C)C)c2ncccc2c1`, the GI50 was more than 100 µM in assay [1]; 4.73 µM in assay [2]; 11.8 µM in assay [3]; 27.4 µM in assay [4]; 17.7 µM in assay [5]; 6.62 µM in assay [6]. Also, the GI50 in assay [7] was 0.112 µM; in assay [8] it was 79.3 µM; in assay [9], 2.17 µM; in assay [10], 12.2 µM. Further, the TGI in assay [1] was more than 100 µM; in assay [2] it was 22 µM; in assay [3] it was 42.9 µM; in assay [4], more than 83.1 µM; in assay [5], 35 µM; in [6], more than 47.5 µM. Besides, the TGI is 0.876 µM in assay [7], more than 100 µM in assay [8], 6.38 µM in assay [9] and 33 µM in assay [10].

Regarding `COc1cc(C2SCC(=O)N2c2ncc(C)s2)cc(OC)c1OC` (configuration not stated), the GI50 in assay [1] is 12 µM; in assay [2], 43.9 µM; in assay [3], 31.2 µM; in assay [4], 21 µM; in assay [5], 2.91 µM; in assay [6], 22.5 µM. Further, the GI50 in assay [7] was 14.3 µM; in assay [8] it was 9.23 µM; in assay [9], 17.3 µM; in assay [10], 12.5 µM. The TGI in assay [1] is more than 50 µM; in [2], more than 50 µM; in [3], more than 50 µM; in [4] it was more than 50 µM; in [5] it was 24.9 µM; in assay [6], more than 50 µM. Also, the TGI in assay [7] is 44.8 µM; in assay [8] it was more than 50 µM; in [9], more than 50 µM; in assay [10], 49.4 µM.

With `C#Cc1c(/C=C/C(=O)OCC)ccc2ccccc12`, the GI50 in assay [1] is 21.4 µM; in [2], 28 µM; in assay [3], 13.1 µM; in assay [4] it was 18.9 µM; in assay [5] it was 2.11 µM; in assay [6], 10.7 µM. Also, the GI50 in [7] is 16 µM; in assay [8], 13.3 µM; in assay [9], 15.2 µM; in [10] it was 11.6 µM. For the same molecule, the TGI in assay [1] came out at 56.7 µM; in [2], 84.3 µM; in assay [3] it was 27.4 µM; in assay [4] it was 46 µM; in assay [5], 5.78 µM; in [6], 26.1 µM. Also, the TGI was 40.6 µM in assay [7], 45 µM in assay [8], 31.9 µM in assay [9] and 27.5 µM in [10].

Values taken from PubChem BioAssay (NCI).
